This note sets out measurements from ChEMBL document CHEMBL5725283, “2-pyridinecarboxamide derivatives, compositions containing such compounds, and methods of treatment” (2016).

A word on the EC50: it is the concentration at which the effect is half-maximal.

This test can be described thus: Glucokinase Activity Assay: Recombinant human liver glucokinase was expressed as a FLAG fusion protein in E. coli, and purified on ANTIFLAG M2 AFFINITY GEL (Sigma). The assay was carried out at 30° C. in a 96-well plate. In the plate was distributed 69 μl each of assay buffer (25 mM Hepes Buffer: pH=7.2, 2 mM MgCl2, 1 mM ATP, 0.5 mM TNAD, 1 mM dithiothreitol), to which was added 1 μl of a DMSO solution of the compound or DMSO as control. Then, 20 μl of pre-ice-cooled enzyme mixture (FLAG-GK, 20 U/ml G6PDH) was distributed thereto, to which was added 10 μl of 25 mM glucose as substrate to initiate the reaction (final glucose concentration=2.5 mM). After starting the reaction, the absorbance at 405 nm was measured every 30 seconds for 10 minutes to evaluate the compound based on the initial increase for 5 minutes. FLAG-GK was added so that the increase of absorbance after 5 minutes fell between 0.05 to 0.1 in the presence of 1% DMSO.

Turning to `CCOC(=O)Cc1csc(NC(=O)c2nc(Sc3nncn3C)ccc2Sc2ccc(F)cc2)n1`, the EC50 amounted to 49.3 nM.
The figure for `Cn1cnnc1Sc1ccc(Sc2ccc(F)cc2)c(C(=O)Nc2nc(CC(=O)O)cs2)n1` is 137 nM.
On to `CCOC(=O)CSc1cnc(NC(=O)c2nc(Sc3nncn3C)ccc2Sc2ccc(F)cc2)s1`, for which the EC50 came out at 13.4 nM.
